Data taken from patent publication US20230102554A1 (GB002, INC., priority 2019, published 2023).

Assays:
[1] = molecular target: T1, Human PDGFRβ, cytoplasmic domain (GST-PDGFRβ) (Homo sapiens, UniProt P09619); test: Human PDGFRβ biochemical inhibition assay (off-chip Mobility Shift Assay)
T1 construct: made in house
Procedure, shortened: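 GST-tagged cytoplasmic domain (aa 557-1106) from baculovirus was incubated 1 h at room temperature with compound, CSKtide, ATP at Km and Mg²⁺ in HEPES buffer, pH 7.5. Phosphorylated and unphosphorylated peptide were separated by off-chip mobility shift, and the product ratio P/(P+S) gave percent inhibition.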

[2] = molecular target: T2, Human PDGFRα, cytoplasmic domain (GST-PDGFRα) (Homo sapiens, UniProt P16234); test: Human PDGFRα biochemical inhibition assay (off-chip Mobility Shift Assay)
T2 construct: made in house
T2 sequence (P16234 550-1089 T674I): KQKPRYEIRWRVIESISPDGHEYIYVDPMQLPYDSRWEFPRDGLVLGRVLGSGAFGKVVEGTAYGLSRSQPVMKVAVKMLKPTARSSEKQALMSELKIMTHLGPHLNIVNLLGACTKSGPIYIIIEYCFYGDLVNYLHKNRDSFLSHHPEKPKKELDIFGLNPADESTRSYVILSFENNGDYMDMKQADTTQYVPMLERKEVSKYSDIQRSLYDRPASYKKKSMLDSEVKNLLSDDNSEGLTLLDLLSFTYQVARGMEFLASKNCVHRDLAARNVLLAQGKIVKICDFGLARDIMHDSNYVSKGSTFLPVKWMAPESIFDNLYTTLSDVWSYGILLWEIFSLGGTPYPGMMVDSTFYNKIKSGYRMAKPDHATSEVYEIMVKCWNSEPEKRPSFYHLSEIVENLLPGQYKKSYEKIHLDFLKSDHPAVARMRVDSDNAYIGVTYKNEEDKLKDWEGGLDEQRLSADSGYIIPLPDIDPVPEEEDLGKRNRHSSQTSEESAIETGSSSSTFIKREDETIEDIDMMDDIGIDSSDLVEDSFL

T1 sequence (P09619 with tags, fused parts or gaps): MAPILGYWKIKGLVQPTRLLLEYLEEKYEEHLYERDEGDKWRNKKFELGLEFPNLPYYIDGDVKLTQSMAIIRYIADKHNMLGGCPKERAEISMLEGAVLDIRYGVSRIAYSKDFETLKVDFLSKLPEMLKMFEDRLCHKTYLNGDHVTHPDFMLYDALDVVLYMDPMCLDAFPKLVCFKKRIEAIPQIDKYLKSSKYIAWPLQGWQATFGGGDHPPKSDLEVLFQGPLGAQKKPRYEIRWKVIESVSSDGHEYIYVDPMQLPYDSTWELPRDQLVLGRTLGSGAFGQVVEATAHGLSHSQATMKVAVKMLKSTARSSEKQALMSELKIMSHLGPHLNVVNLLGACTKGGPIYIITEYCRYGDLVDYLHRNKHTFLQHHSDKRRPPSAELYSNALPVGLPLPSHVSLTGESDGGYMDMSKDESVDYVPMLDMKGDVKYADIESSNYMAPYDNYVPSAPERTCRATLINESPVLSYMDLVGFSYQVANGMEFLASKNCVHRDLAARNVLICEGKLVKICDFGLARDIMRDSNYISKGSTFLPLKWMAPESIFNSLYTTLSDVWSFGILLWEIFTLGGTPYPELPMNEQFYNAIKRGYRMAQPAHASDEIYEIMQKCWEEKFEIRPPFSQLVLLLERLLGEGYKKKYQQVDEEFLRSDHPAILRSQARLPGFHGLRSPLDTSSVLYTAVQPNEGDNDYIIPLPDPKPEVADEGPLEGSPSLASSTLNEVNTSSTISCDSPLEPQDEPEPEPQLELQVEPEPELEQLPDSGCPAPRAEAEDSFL

IC50 [1] [nM] | IC50 [2] [nM] | SMILES
300 to 1000 | < 300 | CCn1cc2ncc(N[C@@H](C)c3cccc(NC(=O)c4ccc5c(c4)OCO5)c3)nc2n1 [Compound 64, (S)-N-(3-(1-((2-ethyl-2H-pyrazolo[3,4-b]pyrazin-6-yl)amino)ethyl)phenyl) benzo[d][1,3]dioxole-5-carboxamide]
< 300 | < 300 | CCn1cc2ncc(N[C@@H](C)c3cccc(NC(=O)c4ccc(CN5CCCC6(COC6)C5)c(C)c4)c3)nc2n1 [Compound 481, (S)-4-((2-oxa-6-azaspiro[3.5]nonan-6-yl)methyl)-N-(3-(1-((2-ethyl-2H-pyrazolo[3,4-b]pyrazin-6-yl)amino)ethyl)phenyl)-3-methylbenzamide]
< 300 | < 300 | CCn1cc2ncc(N[C@@H](C)c3cccc(NC(=O)c4ccc(CN5CC[C@@H](O)C5)c(Cl)c4)c3)nc2n1 [Compound 483, 3-chloro-N-(3-((S)-1-((2-ethyl-2H-pyrazolo[3,4-b]pyrazin-6-yl)amino)ethyl)phenyl)-4-(((R)-3-hydroxypyrrolidin-1-yl)methyl) benzamide]
< 300 | < 300 | Cc1cncc(C(=O)Nc2ccc(F)c([C@H](C)Nc3cnc4cnn(C)c4n3)c2)c1 [Compound 172]
≥ 1000 | < 300 | Cc1cc(C(=O)Nc2cccc([C@H](C)Nc3cnc4cnn(C)c4n3)c2)cnn1 [Compound 132, (S)-6-methyl-N-(3-(1-((1-methyl-1H-pyrazolo[3,4-b]pyrazin-6-yl)amino)ethyl)phenyl)pyridazine-4-carboxamide]
< 300 | < 300 | Cc1n[nH]c2ncc(N[C@@H](C)c3cccc(NC(=O)c4cc(C(F)(F)F)nn4C)c3)nc12 [Compound 548, (S)-1-methyl-N-(3-(1-((3-methyl-1H-pyrazolo[3,4-b]pyrazin-5-yl)amino)ethyl)phenyl)-3-(trifluoromethyl)-1H-pyrazole-5-carboxamide]
< 300 | < 300 | CCn1cc2ncc(N[C@@H](C)c3cccc(NC(=O)c4ccc(Cl)c(C)c4)c3)nc2n1 [Compound 345, (S)-4-chloro-N-(3-(1-((2-ethyl-2H-pyrazolo[3,4-b]pyrazin-6-yl)amino)ethyl)phenyl)-3-methylbenzamide]
300 to 1000 | < 300 | CCn1cc2ncc(N[C@@H](C)c3cccc(NC(=O)c4ccc5c(c4)CCNC5)c3)nc2n1 [Compound 66, (S)-N-(3-(1-((2-ethyl-2H-pyrazolo[3,4-b]pyrazin-6-yl)amino)ethyl)phenyl)-1,2,3,4-tetrahydroisoquinoline-6-carboxamide]
< 300 | < 300 | Cc1cncc(C(=O)Nc2cccc([C@H](C)Nc3cnc4[nH]nc(C)c4n3)c2)c1 [Compound 16, (S)-5-methyl-N-(3-(1-((3-methyl-1H-pyrazolo[3,4-b]pyrazin-5-yl)amino)ethyl)phenyl)nicotinamide]
< 300 | < 300 | C[C@H](Nc1cnc2cnn(C)c2n1)c1cccc(NC(=O)c2ccc3c(c2)CCCO3)c1 [Compound 71, (S)-N-(3-(1-((1-methyl-1H-pyrazolo[3,4-b]pyrazin-6-yl)amino)ethyl)phenyl)chromane-6-carboxamide]
< 300 | < 300 | COc1cncc(C(=O)Nc2cccc([C@H](C)Nc3cnc4cnn(C)c4n3)c2)c1 [Compound 104, (S)-5-methoxy-N-(3-(1-((1-methyl-1H-pyrazolo[3,4-b]pyrazin-6-yl)amino)ethyl)phenyl)nicotinamide]
< 300 | < 300 | Cc1cc(C(=O)Nc2cccc([C@H](C)Nc3cnc4cnn(C)c4n3)c2)cnc1C(F)(F)F [Compound 125, (S)-5-methyl-N-(3-(1-((1-methyl-1H-pyrazolo[3,4-b]pyrazin-6-yl)amino)ethyl)phenyl)-6-(trifluoromethyl) nicotinamide]

Continued, molecule first:

SMILES | IC50 [1] [nM] | IC50 [2] [nM]
CCn1cc2ncc(N[C@@H](C)c3cc(NC(=O)c4cnc(NC5CC5)c(C)c4)ccc3C)nc2n1 [Compound 515, (S)-6-(cyclopropylamino)-N-(3-(1-((2-ethyl-2H-pyrazolo[3,4-b]pyrazin-6-yl)amino)ethyl)-4-methylphenyl)-5-methylnicotinamide] | < 300 | < 300
CCn1cc2ncc(N[C@@H](C)c3cc(NC(=O)c4ccc(CN5CCOCC5)c(C)c4)ccc3C)nc2n1 [Compound 523, (S)-N-(3-(1-((2-ethyl-2H-pyrazolo[3,4-b]pyrazin-6-yl)amino)ethyl)-4-methylphenyl)-3-methyl-4-(morpholinomethyl) benzamide] | < 300 | < 300
CCn1cc2ncc(N[C@@H](C)c3cccc(NC(=O)c4cnc(NC(C)=O)s4)c3)nc2n1 [Compound 370, (S)-2-acetamido-N-(3-(1-((2-ethyl-2H-pyrazolo[3,4-b]pyrazin-6-yl)amino)ethyl)phenyl)thiazole-5-carboxamide] | ≥ 1000 | 300 to 1000
CCn1cc2ncc(N[C@@H](C)c3cc(NC(=O)c4cc(F)c(CN5CCOCC5)c(Cl)c4)ccc3C)nc2n1 [Compound 520, (S)-3-chloro-N-(3-(1-((2-ethyl-2H-pyrazolo[3,4-b]pyrazin-6-yl)amino)ethyl)-4-methylphenyl)-5-fluoro-4-(morpholinomethyl) benzamide] | < 300 | < 300
CCn1cc2ncc(N[C@@H](C)c3cccc(NC(=O)c4cnc(N5CCCC5)s4)c3)nc2n1 [Compound 326, (S)-N-(3-(1-((2-ethyl-2H-pyrazolo[3,4-b]pyrazin-6-yl)amino)ethyl)phenyl)-2-(pyrrolidin-1-yl)thiazole-5-carboxamide] | < 300 | < 300
C[C@H](Nc1cnc2cnn(C)c2n1)c1cccc(NC(=O)c2cncc(Br)c2)c1 [Compound 111, (S)-5-bromo-N-(3-(1-((1-methyl-1H-pyrazolo[3,4-b]pyrazin-6-yl)amino)ethyl)phenyl)nicotinamide] | < 300 | < 300
CCn1cc2ncc(N[C@@H](C)c3cccc(NC(=O)c4ccc(C(=O)N5CCN(C)CC5)c(C)c4)c3)nc2n1 [Compound 472, (S)-N-(3-(1-((2-ethyl-2H-pyrazolo[3,4-b]pyrazin-6-yl)amino)ethyl)phenyl)-3-methyl-4-(4-methylpiperazine-1-carbonyl)benzamide] | 300 to 1000 | < 300
CCn1cc2ncc(N[C@@H](C)c3cc(NC(=O)c4ccc(C(F)(F)F)nc4)ccc3Cl)nc2n1 [Compound 458, (S)-N-(4-chloro-3-(1-((2-ethyl-2H-pyrazolo[3,4-b]pyrazin-6-yl)amino)ethyl)phenyl)-6-(trifluoromethyl)nicotinamide] | < 300 | < 300
Cc1cncc(C(=O)Nc2cccc([C@H](C)Nc3cnc4cc(F)c(F)cc4c3)c2)c1 [Compound 30, (S)-N-(3-(1-((6,7-difluoroquinolin-3-yl)amino)ethyl)phenyl)-5-methylnicotinamide] | 300 to 1000 | < 300
Cc1cncc(C(=O)Nc2cccc([C@H](C)Nc3cnc4[nH]cnc4n3)c2)c1 [Compound 23, (S)—N-(3-(1-((1H-imidazo[4,5-b]pyrazin-5-yl)amino)ethyl)phenyl)-5-methylnicotinamide] | 300 to 1000 | 300 to 1000
